Measured values: PMC4303209, “A novel phosphatidylinositol 3-kinase (PI3K) inhibitor directs a potent FOXO-dependent, p53-independent cell cycle arrest phenotype characterized by the differential induction of a subset of FOXO-regulated genes” (Breast Cancer Research : BCR, 2014)

System: MCF-7 breast cancer cells
Experiment: Microarray gene expression analysis (Agilent whole human genome 4 x 44K; compound vs DMSO, LIMMA log2 fold change)
Format: cell-based

SMILES: Oc1cccc(-c2nc(N3CCOCC3)c3oc4ncccc4c3n2)c1 [PI-103]
- BCL11B log2FC (Apoptosis genes, Gene 64919): 0.237
- MRPL41 log2FC (Apoptosis genes, Gene 64975): -0.467
- PINK1 log2FC (Apoptosis genes, Gene 65018): 1.918
- PRAMEF1 log2FC (Apoptosis genes, Gene 65121): 0.050
- PRAMEF2 log2FC (Apoptosis genes, Gene 65122): 0.021
- UBE2Z log2FC (Apoptosis genes, Gene 65264): -0.420
- TMEM109 log2FC (Apoptosis genes, Gene 79073): -0.554
- CHAC1 log2FC (Apoptosis genes, Gene 79094): 0.106
- TNIP2 log2FC (Apoptosis genes, Gene 79155): -0.233
- PLEKHF1 log2FC (Apoptosis genes, Gene 79156): -0.466
- THOC6 log2FC (Apoptosis genes, Gene 79228): -0.153
- BCL2L14 log2FC (Apoptosis genes, Gene 79370): -0.153
- BIRC7 log2FC (Apoptosis genes, Gene 79444): -0.015
- ELMO3 log2FC (Apoptosis genes, Gene 79767): -0.530
- SLTM log2FC (Apoptosis genes, Gene 79811): 0.713
- ZC3H12A log2FC (Apoptosis genes, Gene 80149): -1.248
- RNF34 log2FC (Apoptosis genes, Gene 80196): -0.370
- ELL3 log2FC (Apoptosis genes, Gene 80237): 1.045
- CPEB4 log2FC (Apoptosis genes, Gene 80315): 0.553
- COL18A1 log2FC (Apoptosis genes, Gene 80781): 0.023
- SGPP1 log2FC (Apoptosis genes, Gene 81537): -0.248
- SHARPIN log2FC (Apoptosis genes, Gene 81858): -0.118
- APH1B log2FC (Apoptosis genes, Gene 83464): -0.243
- RASSF5 log2FC (Apoptosis genes, Gene 83593): -0.099
- SOX7 log2FC (Apoptosis genes, Gene 83595): -0.149
- BCL2L12 log2FC (Apoptosis genes, Gene 83596): -0.182
- ITCH log2FC (Apoptosis genes, Gene 83737): 0.449
- CDCA7 log2FC (Apoptosis genes, Gene 83879): -0.061
- TATDN1 log2FC (Apoptosis genes, Gene 83940): 0.554
- TM2D1 log2FC (Apoptosis genes, Gene 83941): 0.055
- OBSCN log2FC (Apoptosis genes, Gene 84033): 0.392
- TRAF7 log2FC (Apoptosis genes, Gene 84231): -0.080
- RHBDD1 log2FC (Apoptosis genes, Gene 84236): -0.425
- TCHP log2FC (Apoptosis genes, Gene 84260): 0.283
- ZDHHC16 log2FC (Apoptosis genes, Gene 84287): -0.316
- ING5 log2FC (Apoptosis genes, Gene 84289): -0.961
- AKT1S1 log2FC (Apoptosis genes, Gene 84335): -0.610
- CARD11 log2FC (Apoptosis genes, Gene 84433): 0.185
- SYVN1 log2FC (Apoptosis genes, Gene 84447): 0.495
- ZC3H8 log2FC (Apoptosis genes, Gene 84524): 1.375
- FNDC1 log2FC (Apoptosis genes, Gene 84624): -0.079
- CARD6 log2FC (Apoptosis genes, Gene 84674): 0.035
- HINT2 log2FC (Apoptosis genes, Gene 84681): 0.122
- BEX2 log2FC (Apoptosis genes, Gene 84707): 0.833
- TNS4 log2FC (Apoptosis genes, Gene 84951): -1.157
- ATG4D log2FC (Apoptosis genes, Gene 84971): -0.288
- SCRT2 log2FC (Apoptosis genes, Gene 85508): -0.600
- WNT3A log2FC (Apoptosis genes, Gene 89780): -0.352
- FGD3 log2FC (Apoptosis genes, Gene 89846): 0.895
- UNC5A log2FC (Apoptosis genes, Gene 90249): -0.397
- BMF log2FC (Apoptosis genes, Gene 90427): 2.201
- MTDH log2FC (Apoptosis genes, Gene 92140): 0.308
- TIMM50 log2FC (Apoptosis genes, Gene 92609): -0.337
- TP53INP1 log2FC (Apoptosis genes, Gene 94241): 0.890
- EGLN2 log2FC (Apoptosis genes, Gene 112398): 0.419
- EGLN3 log2FC (Apoptosis genes, Gene 112399): -0.441
- PNMA5 log2FC (Apoptosis genes, Gene 114824): 0.611
- SLC5A11 log2FC (Apoptosis genes, Gene 115584): 0.170
- TWIST2 log2FC (Apoptosis genes, Gene 117581): -0.613
- RFFL log2FC (Apoptosis genes, Gene 117584): -0.445
- FGD4 log2FC (Apoptosis genes, Gene 121512): 0.646
- RXFP2 log2FC (Apoptosis genes, Gene 122042): -0.012
- DCUN1D3 log2FC (Apoptosis genes, Gene 123879): -0.855
- ACVR1C log2FC (Apoptosis genes, Gene 130399): 0.413
- IL31RA log2FC (Apoptosis genes, Gene 133396): 0.067
- JMY log2FC (Apoptosis genes, Gene 133746): 1.008
- UNC5D log2FC (Apoptosis genes, Gene 137970): 0.036
- DYNLL2 log2FC (Apoptosis genes, Gene 140735): -0.654
- PSMA8 log2FC (Apoptosis genes, Gene 143471): 0.074
- TICAM1 log2FC (Apoptosis genes, Gene 148022): -0.334
- BNIPL log2FC (Apoptosis genes, Gene 149428): -0.016
- ZSWIM2 log2FC (Apoptosis genes, Gene 151112): -0.00651
- DAB2IP log2FC (Apoptosis genes, Gene 153090): 0.029
- SLC5A8 log2FC (Apoptosis genes, Gene 160728): -0.019
- PTCRA log2FC (Apoptosis genes, Gene 171558): -0.229
- HIGD2A log2FC (Apoptosis genes, Gene 192286): -0.188
- FLCN log2FC (Apoptosis genes, Gene 201163): 0.778
- HIPK1 log2FC (Apoptosis genes, Gene 204851): -0.082
- UNC5B log2FC (Apoptosis genes, Gene 219699): -0.706
- RNF152 log2FC (Apoptosis genes, Gene 220441): -0.049
- FGD2 log2FC (Apoptosis genes, Gene 221472): -0.083
- MPV17L log2FC (Apoptosis genes, Gene 255027): -0.431
- TMEM23 log2FC (Apoptosis genes, Gene 259230): 0.281
- MAGI3 log2FC (Apoptosis genes, Gene 260425): 0.313
- BLOC1S2 log2FC (Apoptosis genes, Gene 282991): 0.288
- NRBP2 log2FC (Apoptosis genes, Gene 340371): -0.00243
- NANOS3 log2FC (Apoptosis genes, Gene 342977): 0.015
- AMIGO2 log2FC (Apoptosis genes, Gene 347902): 0.458
- C6orf120 log2FC (Apoptosis genes, Gene 387263): -0.573
- GDF6 log2FC (Apoptosis genes, Gene 392255): -0.024
- MYO18A log2FC (Apoptosis genes, Gene 399687): -0.274
- PRAMEF3 log2FC (Apoptosis genes, Gene 401940): -0.384
- ADIPOQ log2FC (Apoptosis genes, Gene 414149): -0.263
- PIM3 log2FC (Apoptosis genes, Gene 415116): 0.644
- LGALS7 log2FC (Apoptosis genes, Gene 653499): -0.246
- CARD9 log2FC (Apoptosis genes, Gene 728489): -0.430
- PDCD6 log2FC (Apoptosis genes, Gene 728613): -0.273
- RRN3 log2FC (Apoptosis genes, Gene 730092): 0.522
- CD24 log2FC (Apoptosis genes, Gene 100133941): 0.117
- ACVR1 log2FC (Gene 90, cell cycle genes): 0.55
- ACVR1B log2FC (Gene 91, cell cycle genes): -0.21
- ADCYAP1 log2FC (Gene 116, cell cycle genes): 0.0422
- AHR log2FC (Gene 196, cell cycle genes): 0.78
- AIF1 log2FC (Gene 199, cell cycle genes): -0.0247
- AK1 log2FC (Gene 203, cell cycle genes): -0.25
- AKT1 log2FC (Gene 207, cell cycle genes): -0.58
- AKT2 log2FC (Gene 208, cell cycle genes): -0.41
- ALOX15B log2FC (Gene 247, cell cycle genes): -0.00234
- ANK3 log2FC (Gene 288, cell cycle genes): 0.62
- ANXA1 log2FC (Gene 301, cell cycle genes): 0.80
- ANXA11 log2FC (Gene 311, cell cycle genes): -0.16
- APBB1 log2FC (Gene 322, cell cycle genes): 0.36
- APBB2 log2FC (Gene 323, cell cycle genes): -0.18
- APEX1 log2FC (Gene 328, cell cycle genes): 0.12
- BIRC2 log2FC (Gene 329, cell cycle genes): -0.34
- APP log2FC (Gene 351, cell cycle genes): 0.33
- ARF6 log2FC (Gene 382, cell cycle genes): -0.57
- RHOB log2FC (Gene 388, cell cycle genes): -0.10
- RHOC log2FC (Gene 389, cell cycle genes): -0.37
- ARL2 log2FC (Gene 402, cell cycle genes): 0.09
- ARL3 log2FC (Gene 403, cell cycle genes): 0.06
- ASNS log2FC (Gene 440, cell cycle genes): -0.39
- BACH1 log2FC (Gene 571, cell cycle genes): 0.78
- BARD1 log2FC (Gene 580, cell cycle genes): 0.34
- BBS4 log2FC (Gene 585, cell cycle genes): 0.84
- CCND1 log2FC (Gene 595, cell cycle genes): -1.53
- BCL2 log2FC (Gene 596, cell cycle genes): -0.34
- BCL2L1 log2FC (Gene 598, cell cycle genes): -0.92
- BCR log2FC (Gene 613, cell cycle genes): -0.81
- BID log2FC (Gene 637, cell cycle genes): -0.26
- BMP2 log2FC (Gene 650, cell cycle genes): -0.23
- BMP7 log2FC (Gene 655, cell cycle genes): -0.32
- DST log2FC (Gene 667, cell cycle genes): 0.55
- BRCA1 log2FC (Gene 672, cell cycle genes): 0.74
- BRDT log2FC (Gene 676, cell cycle genes): -0.0232
- BUB1 log2FC (Gene 699, cell cycle genes): 0.59
- CALM1 log2FC (Gene 801, cell cycle genes): 0.07
- CALR log2FC (Gene 811, cell cycle genes): -0.16
- CAMK2A log2FC (Gene 815, cell cycle genes): 0.03
- CAMK2D log2FC (Gene 817, cell cycle genes): 0.78
- CAMK2G log2FC (Gene 818, cell cycle genes): 0.66
- CASP2 log2FC (Gene 835, cell cycle genes): -0.76
- CAV2 log2FC (Gene 858, cell cycle genes): 0.93
- RUNX3 log2FC (Gene 864, cell cycle genes): -0.36
- CCNA2 log2FC (Gene 890, cell cycle genes): -0.08
- CCNB1 log2FC (Gene 891, cell cycle genes): -0.13
- CCNC log2FC (Gene 892, cell cycle genes): -0.10
- CCND2 log2FC (Gene 894, cell cycle genes): -1.30
- CCND3 log2FC (Gene 896, cell cycle genes): -0.73
- CCNE1 log2FC (Gene 898, cell cycle genes): -0.63
- CCNG1 log2FC (Gene 900, cell cycle genes): 0.46
- CCNG2 log2FC (Gene 901, cell cycle genes): 3.91
- CD28 log2FC (Gene 940, cell cycle genes): 0.0361
- CDC5L log2FC (Gene 988, cell cycle genes): 0.88
- CDC6 log2FC (Gene 990, cell cycle genes): -0.98
- CDC20 log2FC (Gene 991, cell cycle genes): -0.31
- CDC25A log2FC (Gene 993, cell cycle genes): -2.03
